Assay results from ChEMBL document CHEMBL1132021, “Synthesis of an imidazo[1,2-e]purine-acridine heterodimer for targeting abasic sites in DNA” (Bioorg Med Chem Lett, 1999).

Test: Ionization state of the molecule at physiological pH was evaluated by potentiometry.
Type: ADME

Row | Structure (SMILES) | pKa
1 | Nc1ncnc2c1nc(N)n2[C@@H]1O[C@H](CO)[C@@H](O)[C@H]1O | 4
2 | COc1ccc2nc3cc(Cl)ccc3c(N)c2c1 | 8.99
